Literature values in patent publication US20050281746A1, “Anticoagulant contrast media” (priority 2004, published 2005).

Experiments:
[1] = X-ray contrast agents grouped by ionicity and benzene rings
[2] = X-ray contrast agents grouped by structure; classes High / Low / Iso
[3] = X-ray contrast agents grouped by structure

Row | Structure (SMILES) | Adverse effects [1] | Osmolality (mOsm/kg) [2] | Viscosity (cps) [3]
1 | CC(=O)N(CC(O)CN(C(C)=O)c1c(I)c(C(=O)NCC(O)CO)c(I)c(C(=O)NCC(O)CO)c1I)c1c(I)c(C(=O)NCC(O)CO)c(I)c(C(=O)NCC(O)CO)c1I (centres unmarked) [Iodixanol] | Thrombotic | (280) mOsm/kg | 26 cps
2 | CC(=O)N(CC(O)CO)c1c(I)c(C(=O)NCC(O)CO)c(I)c(C(=O)NCC(O)CO)c1I (centres unmarked) [Iohexol] | Thrombotic |  | 
3 | CN(C(=O)CO)c1c(I)c(C(=O)NCC(O)CO)c(I)c(C(=O)NCC(O)CO)c1I (centres unmarked) [Iomerpol] | Thrombotic |  | 
4 | C[C@H](O)C(=O)Nc1c(I)c(C(=O)NC(CO)CO)c(I)c(C(=O)NC(CO)CO)c1I [Iopamidol] | Thrombotic |  | 
5 | COCC(O)CN(C(C)=O)c1c(I)c(C(=O)NCC(O)CO)c(I)c(C(=O)NCC(O)CO)c1I (centres unmarked) [Iopentol] | Thrombotic |  | 
6 | COCC(=O)Nc1c(I)c(C(=O)NCC(O)CO)c(I)c(C(=O)N(C)CC(O)CO)c1I (centres unmarked) [Iopromide] | Thrombotic |  | 
